Legend:
[1] = target: Serine/threonine-protein kinase 10 (Homo sapiens, UniProt O94804); assay: Inhibition of STK10 (unknown origin)
[2] = target: RAC-beta serine/threonine-protein kinase (Homo sapiens, UniProt P31751); assay: Inhibition of AKT2 (unknown origin)
RAC-beta serine/threonine-protein kinase, sequence (P31751 whole entry): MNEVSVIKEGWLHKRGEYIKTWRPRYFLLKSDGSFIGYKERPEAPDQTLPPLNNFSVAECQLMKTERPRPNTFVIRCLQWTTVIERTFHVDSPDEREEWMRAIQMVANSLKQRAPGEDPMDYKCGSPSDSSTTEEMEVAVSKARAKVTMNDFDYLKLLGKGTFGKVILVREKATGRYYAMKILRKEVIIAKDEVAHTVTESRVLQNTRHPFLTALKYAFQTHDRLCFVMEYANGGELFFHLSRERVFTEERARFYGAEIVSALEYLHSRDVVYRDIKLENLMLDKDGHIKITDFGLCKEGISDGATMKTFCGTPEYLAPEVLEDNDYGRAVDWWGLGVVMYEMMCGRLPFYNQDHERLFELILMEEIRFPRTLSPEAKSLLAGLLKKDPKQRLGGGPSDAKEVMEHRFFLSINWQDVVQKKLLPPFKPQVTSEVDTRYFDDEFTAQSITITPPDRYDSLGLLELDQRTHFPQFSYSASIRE

Serine/threonine-protein kinase 10, sequence (O94804 whole entry): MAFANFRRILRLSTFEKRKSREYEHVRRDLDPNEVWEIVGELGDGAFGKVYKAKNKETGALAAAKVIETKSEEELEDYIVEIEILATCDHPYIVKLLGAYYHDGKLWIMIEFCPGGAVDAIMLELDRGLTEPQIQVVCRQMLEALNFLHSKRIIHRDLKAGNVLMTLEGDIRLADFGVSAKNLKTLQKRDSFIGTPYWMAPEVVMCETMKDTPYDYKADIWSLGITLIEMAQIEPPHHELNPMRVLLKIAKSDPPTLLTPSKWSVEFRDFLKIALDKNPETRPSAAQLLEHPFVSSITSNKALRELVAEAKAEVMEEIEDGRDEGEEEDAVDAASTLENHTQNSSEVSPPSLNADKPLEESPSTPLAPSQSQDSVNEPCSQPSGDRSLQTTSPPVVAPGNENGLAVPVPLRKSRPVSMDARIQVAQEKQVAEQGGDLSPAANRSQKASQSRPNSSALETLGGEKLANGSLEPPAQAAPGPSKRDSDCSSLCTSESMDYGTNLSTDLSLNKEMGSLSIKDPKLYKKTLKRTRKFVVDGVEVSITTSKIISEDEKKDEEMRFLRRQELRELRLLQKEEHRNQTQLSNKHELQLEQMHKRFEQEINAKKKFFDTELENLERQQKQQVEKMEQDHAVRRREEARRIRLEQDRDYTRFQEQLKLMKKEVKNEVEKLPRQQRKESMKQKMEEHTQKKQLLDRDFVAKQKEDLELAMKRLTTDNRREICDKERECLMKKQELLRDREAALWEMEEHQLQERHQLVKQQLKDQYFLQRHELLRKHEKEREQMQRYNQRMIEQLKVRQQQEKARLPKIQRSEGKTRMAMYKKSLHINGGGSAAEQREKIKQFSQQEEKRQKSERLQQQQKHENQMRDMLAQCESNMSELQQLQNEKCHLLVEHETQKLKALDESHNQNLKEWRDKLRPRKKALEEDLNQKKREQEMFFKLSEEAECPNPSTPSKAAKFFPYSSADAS

Ki [1]	Ki [2]	SMILES
> 10 µM		Oc1ccc(-c2nc(-c3ccncc3)c(-c3ccc(F)cc3)[nH]2)cc1 [SB-202190]
	> 10 µM	COc1cc(N2CCC(N3CCN(C)CC3)CC2)ccc1Nc1ncc(Cl)c(Nc2ccccc2S(=O)(=O)C(C)C)n1 [TAE-684]

— ChEMBL document CHEMBL3822417, “Predictive proteochemometric models for kinases derived from 3D protein field-based descriptors” (Medchemcomm, 2016)
